IC50 data for 13 compounds are collected here from patent US20220168427A1 (Ranok Therapeutics (Hangzhou) Co. Ltd., priority 2019, published 2022).

One data set deals with MV4-11 cells. In words: MV4-11 Cell Cytotoxicity Assay. It is filed as cell-based, human. As to conditions: human, MV4-11 cells, CCK-8. The source says:
% Inhibition=100−(D−B)/(S−B)*100%.
S: The absorbance of the maximum (cells with DMSO)
B: The absorbance of the minimum (medium with DMSO)

The next data set deals with HSP90α (Homo sapiens, UniProt P07900). Kind of data set: HSP90α Binding Fluorescent Polarization (FP) Assay. As to conditions: competition with FITC-geldanamycin; read-out: HSP90 Binding Potency. The method in brief: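 Duplicate wells held BSA buffer, FITC-geldanamycin tracer, compound (3-fold dilution plate spanning 40 μM–2.0 nM) and recombinant protein diluted to 28 μg/ml before addition. Polarization read at 30, 60 and 120 min, 25 °C. Background-corrected mP values gave IC50 through a four-parameter inhibitor-response fit.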

Another data set addresses T1, BRD4 (BD1+BD2) (Homo sapiens, UniProt O60885).
T1 construct: 1.8 μg/ml recombinant BRD4 (BD1+BD2 domains) protein
The following applies: read-out: BRD4 Binding Potency.

Counter-ions that a name gives are not always drawn. Bounds are passed on as bounds.

`CCc1cc(-c2nnc(C(N)=O)n2-c2ccc(CN3CCN(CC4CCN(C(=O)C[C@@H]5N=C(c6ccc(Cl)cc6)c6c(sc(C)c6C)-n6c(C)nnc65)CC4)CC3)cc2)c(O)cc1O` [Compound 106, (S)-4-(4-((4-((1-(2-(4-(4-chlorophenyl)-2,3,9-trimethyl-6H-thieno[3,2-f][1,2,4]triazolo[4,3-a][1,4]diazepin-6-yl)acetyl)piperidin-4-yl)methyl)piperazin-1-yl)methyl)phenyl)-5-(5-ethyl-2,4-dihydroxyphenyl)-4H-1,2,4-triazole-3-carboxamide, trifluoroacetic acid] returned an IC50 at 72 h in the data set on MV4-11 cells of less than 0.1 µM. Besides, the IC50 on HSP90α and at BRD4 (BD1+BD2) was 0.1 to 1 µM in each case.
Compound `Cc1sc2c(c1C)C(c1ccc(Cl)cc1)=N[C@@H](CC(=O)N1CCC(CN3CCN(Cc4ccc(-n5c(C(=O)NCCN6CCCCC6)nnc5-c5cc(C(C)C)c(O)cc5O)cc4)CC3)CC1)c1nnc(C)n1-2` [Compound 107, (S)-4-(4-((4-((1-(2-(4-(4-chlorophenyl)-2,3,9-trimethyl-6H-thieno[3,2-f][1,2,4]triazolo[4,3-a][1,4]diazepin-6-yl)acetyl)piperidin-4-yl)methyl)piperazin-1-yl)methyl)phenyl)-5-(2,4-dihydroxy-5-isopropylphenyl)-N-(2-(piperidin-1-yl)ethyl)-4H-1,2,4-triazole-3-carboxamide, trifluoroacetic acid] gave an IC50 at 72 h with MV4-11 cells of less than 0.1 µM. For the same compound, the IC50 on HSP90α was 0.1 to 1 µM; at BRD4 (BD1+BD2), less than 0.1 µM.
In the data set with MV4-11 cells, `Cc1sc2c(c1C)C(c1ccc(Cl)cc1)=N[C@@H](CC(=O)N1CCC(CN3CCN(Cc4ccc(-n5c(C(=O)NC(C)C)nnc5-c5cc(C(C)C)c(O)cc5O)cc4)CC3)CC1)c1nnc(C)n1-2` [Compound 108, (S)-4-(4-((4-((1-(2-(4-(4-chlorophenyl)-2,3,9-trimethyl-6H-thieno[3,2-f][1,2,4]triazolo[4,3-a][1,4]diazepin-6-yl)acetyl)piperidin-4-yl)methyl)piperazin-1-yl)methyl)phenyl)-5-(2,4-dihydroxy-5-isopropylphenyl)-N-isopropyl-4H-1,2,4-triazole-3-carboxamide, trifluoroacetic acid] returned an IC50 at 72 h of 0.1 to 1 µM. For the same compound, the IC50 on HSP90α and on BRD4 (BD1+BD2) was greater than 1 µM throughout.
In the case of `Cc1sc2c(c1C)C(c1ccc(Cl)cc1)=N[C@@H](CC(=O)N1CCC(CN3CCN(Cc4ccc(-n5c(C(N)=O)nnc5-c5cc(C(C)C)c(O)cc5O)cc4)CC3)CC1)c1nnc(C)n1-2` [Compound 109, (S)-4-(4-((4-((1-(2-(4-(4-chlorophenyl)-2,3,9-trimethyl-6H-thieno[3,2-f][1,2,4]triazolo[4,3-a][1,4]diazepin-6-yl)acetyl)piperidin-4-yl)methyl)piperazin-1-yl)methyl)phenyl)-5-(2,4-dihydroxy-5-isopropylphenyl)-4H-1,2,4-triazole-3-carboxamide, trifluoroacetic acid], in the data set on MV4-11 cells, the IC50 at 72 h was less than 0.1 µM. Moreover, the IC50 on HSP90α is 0.1 to 1 µM; on BRD4 (BD1+BD2), less than 0.1 µM.
For the compound `Cc1sc2c(c1C)C(c1ccc(Cl)cc1)=N[C@@H](CC(=O)N1CCC(CN3CCN(Cc4ccc(-n5c(C(=O)NCCN6CCCCC6)nnc5-c5ccc(O)cc5O)cc4)CC3)CC1)c1nnc(C)n1-2` [Compound 110, (S)-4-(4-((4-((1-(2-(4-(4-chlorophenyl)-2,3,9-trimethyl-6H-thieno[3,2-f][1,2,4]triazolo[4,3-a][1,4]diazepin-6-yl)acetyl)piperidin-4-yl)methyl)piperazin-1-yl)methyl)phenyl)-5-(2,4-dihydroxyphenyl)-N-(2-(piperidin-1-yl)ethyl)-4H-1,2,4-triazole-3-carboxamide, trifluoroacetic acid], the IC50 at 72 h in the data set on MV4-11 cells fell in the range of 0.1 to 1 µM. Also, the IC50 at HSP90α is 0.1 to 1 µM; at BRD4 (BD1+BD2) it was less than 0.1 µM.
As for `CCN(CC)CCNC(=O)c1nnc(-c2ccc(O)cc2O)n1-c1ccc(CN2CCN(CC3CCN(C(=O)C[C@@H]4N=C(c5ccc(Cl)cc5)c5c(sc(C)c5C)-n5c(C)nnc54)CC3)CC2)cc1` [Compound 111, (S)-4-(4-((4-((1-(2-(4-(4-chlorophenyl)-2,3,9-trimethyl-6H-thieno[3,2-f][1,2,4]triazolo[4,3-a][1,4]diazepin-6-yl)acetyl)piperidin-4-yl)methyl)piperazin-1-yl)methyl)phenyl)-N-(2-(diethylamino)ethyl)-5-(2,4-dihydroxyphenyl)-4H-1,2,4-triazole-3-carboxamide, trifluoroacetic acid], the IC50 at 72 h with MV4-11 cells is less than 0.1 µM. The IC50 on HSP90α is 0.1 to 1 µM; on BRD4 (BD1+BD2) it was less than 0.1 µM.
In the data set with MV4-11 cells, `Cc1sc2c(c1C)C(c1ccc(Cl)cc1)=N[C@@H](CC(=O)N1CCC(CN3CCN(Cc4ccc(-n5c(C(N)=O)nnc5-c5ccc(O)cc5O)cc4)CC3)CC1)c1nnc(C)n1-2` [Compound 112, (S)-4-(4-((4-((1-(2-(4-(4-chlorophenyl)-2,3,9-trimethyl-6H-thieno[3,2-f][1,2,4]triazolo[4,3-a][1,4]diazepin-6-yl)acetyl)piperidin-4-yl)methyl)piperazin-1-yl)methyl)phenyl)-5-(2,4-dihydroxyphenyl)-4H-1,2,4-triazole-3-carboxamide, trifluoroacetic acid] had an IC50 at 72 h of less than 0.1 µM. In addition, the IC50 is 0.1 to 1 µM at HSP90α and less than 0.1 µM at BRD4 (BD1+BD2).
`CCc1cc(-c2nnc(C(=O)NCCN3CCCCC3)n2-c2ccc(CN3CCN(CC4CCN(C(=O)C[C@@H]5N=C(c6ccc(Cl)cc6)c6c(sc(C)c6C)-n6c(C)nnc65)CC4)CC3)cc2)c(O)cc1O` [Compound 117, (S)-4-(4-((4-((1-(2-(4-(4-chlorophenyl)-2,3,9-trimethyl-6H-thieno[3,2-f][1,2,4]triazolo[4,3-a][1,4]diazepin-6-yl)acetyl)piperidin-4-yl)methyl)piperazin-1-yl)methyl)phenyl)-5-(5-ethyl-2,4-dihydroxyphenyl)-N-(2-(piperidin-1-yl)ethyl)-4H-1,2,4-triazole-3-carboxamide, trifluoroacetic acid]: in the data set on MV4-11 cells, the IC50 at 72 h was less than 0.1 µM. Further, the IC50 at HSP90α was 0.1 to 1 µM; on BRD4 (BD1+BD2), less than 0.1 µM.
`CCN(CC)CCNC(=O)c1nnc(-c2cc(C(C)C)c(O)cc2O)n1-c1ccc(CN2CCN(CC3CCN(C(=O)C[C@@H]4N=C(c5ccc(Cl)cc5)c5c(sc(C)c5C)-n5c(C)nnc54)CC3)CC2)cc1` [Compound 118, (S)-4-(4-((4-((1-(2-(4-(4-chlorophenyl)-2,3,9-trimethyl-6H-thieno[3,2-f][1,2,4]triazolo[4,3-a][1,4]diazepin-6-yl)acetyl)piperidin-4-yl)methyl)piperazin-1-yl)methyl)phenyl)-N-(2-(diethylamino)ethyl)-5-(2,4-dihydroxy-5-isopropylphenyl)-4H-1,2,4-triazole-3-carboxamide, trifluoroacetic acid] returned an IC50 at 72 h with MV4-11 cells of less than 0.1 µM. The results for the IC50 at HSP90α and at BRD4 (BD1+BD2) were 0.1 to 1 µM and less than 0.1 µM, respectively.
In turn, `Cc1sc2c(c1C)C(c1ccc(Cl)cc1)=N[C@@H](CC(=O)N1CCC(CN3CCN(Cc4ccc(-n5c(C(=O)NC(C)C)nnc5-c5ccc(O)cc5O)cc4)CC3)CC1)c1nnc(C)n1-2` [Compound 119, (S)-4-(4-((4-((1-(2-(4-(4-chlorophenyl)-2,3,9-trimethyl-6H-thieno[3,2-f][1,2,4]triazolo[4,3-a][1,4]diazepin-6-yl)acetyl)piperidin-4-yl)methyl)piperazin-1-yl)methyl)phenyl)-5-(2,4-dihydroxyphenyl)-N-isopropyl-4H-1,2,4-triazole-3-carboxamide, trifluoroacetic acid] showed an IC50 at 72 h with MV4-11 cells of less than 0.1 µM. The IC50 on HSP90α was 0.1 to 1 µM; on BRD4 (BD1+BD2), less than 0.1 µM.
Consider `CCCc1cc(-c2nnc(C(=O)NCCN3CCCCC3)n2-c2ccc(CN3CCN(CC4CCN(C(=O)C[C@@H]5N=C(c6ccc(Cl)cc6)c6c(sc(C)c6C)-n6c(C)nnc65)CC4)CC3)cc2)c(O)cc1O` [Compound 123, (S)-4-(4-((4-((1-(2-(4-(4-chlorophenyl)-2,3,9-trimethyl-6H-thieno[3,2-f][1,2,4]triazolo[4,3-a][1,4]diazepin-6-yl)acetyl)piperidin-4-yl)methyl)piperazin-1-yl)methyl)phenyl)-5-(2,4-dihydroxy-5-propylphenyl)-N-(2-(piperidin-1-yl)ethyl)-4H-1,2,4-triazole-3-carboxamide, trifluoroacetic acid], for which the IC50 at 72 h in the data set on MV4-11 cells is less than 0.1 µM. Moreover, the IC50 was 0.1 to 1 µM on HSP90α and less than 0.1 µM at BRD4 (BD1+BD2).
Regarding `Cc1cc(-c2nnc(C(=O)NCCN3CCCCC3)n2-c2ccc(CN3CCN(CC4CCN(C(=O)C[C@@H]5N=C(c6ccc(Cl)cc6)c6c(sc(C)c6C)-n6c(C)nnc65)CC4)CC3)cc2)c(O)cc1O` [Compound 124, (S)-4-(4-((4-((1-(2-(4-(4-chlorophenyl)-2,3,9-trimethyl-6H-thieno[3,2-f][1,2,4]triazolo[4,3-a][1,4]diazepin-6-yl)acetyl)piperidin-4-yl)methyl)piperazin-1-yl)methyl)phenyl)-5-(2,4-dihydroxy-5-methylphenyl)-N-(2-(piperidin-1-yl)ethyl)-4H-1,2,4-triazole-3-carboxamide, trifluoroacetic acid], the IC50 at 72 h in the data set on MV4-11 cells is less than 0.1 µM. Besides, the figures for the IC50 on HSP90α and at BRD4 (BD1+BD2) were 0.1 to 1 µM and less than 0.1 µM, respectively.
Take `Cc1sc2c(c1C)C(c1ccc(Cl)cc1)=N[C@H](CC(=O)N1CCC(CN3CCN(Cc4ccc(-n5c(O)nnc5-c5cc(C(C)C)c(O)cc5O)cc4)CC3)CC1)c1nnc(C)n1-2` [Compound 125, (R)-2-(4-(4-chlorophenyl)-2,3,9-trimethyl-6H-thieno[3,2-f][1,2,4]triazolo[4,3-a][1,4]diazepin-6-yl)-1-(4-((4-(4-(3-(2,4-dihydroxy-5-isopropylphenyl)-5-hydroxy-4H-1,2,4-triazol-4-yl)benzyl)piperazin-1-yl)methyl)piperidin-1-yl)ethan-1-one hydrochloride]: the IC50 at 72 h with MV4-11 cells is less than 0.1 µM. For the same compound, the IC50 on HSP90α was less than 0.1 µM; on BRD4 (BD1+BD2), greater than 1 µM.
